These results are taken from the supplement of paper PMC10307832.

Holding throughout (assay): relative viability (nuclei count vs DMSO), 5 days (fraction); higher = more cells survive
Compound in the assay “Adavosertib + Pemetrexed”: C=CCn1c(=O)c2cnc(Nc3ccc(N4CCN(C)CC4)cc3)nc2n1-c1cccc(C(C)(C)O)n1 [Adavosertib] + Nc1nc2[nH]cc(CCc3ccc(C(=O)N[C@@H](CCC(=O)O)C(=O)O)cc3)c2c(=O)[nH]1 [Pemetrexed] (partner 0.2 µM)
The procedure, abridged:
(§1)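 Relative viability equals treated-well nuclei counts divided by vehicle-well nuclei counts. Counts came from 4× images of lung cancer cell lines grown in 1536-well plates for 5 days after pin-tool dosing on the day after seeding. Dosing used one drug alone or a fixed anchor-drug dose plus five library-drug doses (not always all listed) in √10 steps, and values are medians of duplicate plates.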

Compound in the assay “Nelarabine + Pictilisib”: COc1nc(N)nc2c1ncn2[C@@H]1O[C@H](CO)[C@@H](O)[C@@H]1O [Nelarabine] + CS(=O)(=O)N1CCN(Cc2cc3nc(-c4cccc5[nH]ncc45)nc(N4CCOCC4)c3s2)CC1 [Pictilisib] (partner 1 µM)
The procedure, abridged: as §1

Compound in the assay “Nelarabine + Crizotinib”: COc1nc(N)nc2c1ncn2[C@@H]1O[C@H](CO)[C@@H](O)[C@@H]1O [Nelarabine] + C[C@@H](Oc1cc(-c2cnn(C3CCNCC3)c2)cnc1N)c1c(Cl)ccc(F)c1Cl [Crizotinib] (partner 1 µM)
An outline of the steps:
as §1

Compound in the assay “Nelarabine + Tozasertib”: COc1nc(N)nc2c1ncn2[C@@H]1O[C@H](CO)[C@@H](O)[C@@H]1O [Nelarabine] + Cc1cc(Nc2cc(N3CCN(C)CC3)nc(Sc3ccc(NC(=O)C4CC4)cc3)n2)n[nH]1 [Tozasertib] (partner 0.1 µM)
An outline of the steps:
as §1

Consider EMC-BAC-2, for which the relative viability with Adavosertib + Pemetrexed (first compound 0.03162 µM) came to 0.399; in the assay with Adavosertib + Pemetrexed (first compound 0.1 µM), 0.357; with Adavosertib + Pemetrexed (first compound 0.3162 µM) it was 0.334; with Nelarabine + Pictilisib (first compound 0.01 µM) it was 0.548; in the assay with Nelarabine + Pictilisib (first compound 0.03162 µM), 0.544; with Nelarabine + Pictilisib (first compound 0.1 µM) it was 0.543. For the same cell line, the relative viability is 0.558 in the assay with Nelarabine + Pictilisib (first compound 0.3162 µM); 0.542 with Nelarabine + Pictilisib (first compound 1 µM); 0.734 in the assay with Nelarabine + Crizotinib (first compound 0.01 µM); 0.624 in the assay with Nelarabine + Crizotinib (first compound 0.03162 µM); 0.782 with Nelarabine + Crizotinib (first compound 0.1 µM); 0.843 with Nelarabine + Crizotinib (first compound 0.3162 µM). The relative viability worked out at 0.683 in the assay with Nelarabine + Crizotinib (first compound 1 µM); 0.307 with Nelarabine + Tozasertib (first compound 0.01 µM); 0.236 with Nelarabine + Tozasertib (first compound 0.03162 µM); 0.277 with Nelarabine + Tozasertib (first compound 0.1 µM); 0.239 with Nelarabine + Tozasertib (first compound 0.3162 µM); 0.297 in the assay with Nelarabine + Tozasertib (first compound 1 µM).
